Reference: US20210347728A1, “4,5-DIHYDROXY-2-(4-METHYLBENZYL)ISOPHTHALONITRILE SOLVATES AND CRYSTALLINE FORMS THEREOF” (Orion Corporation, priority 2018, published 2021)

Experiment: Stability and conversion of crystalline forms with relative humidity
Format: physicochemical
Conditions: humidity range not specified

Cc1ccc(Cc2c(C#N)cc(O)c(O)c2C#N)cc1 [Form II monohydrate, 4,5-dihydroxy-2-(4-methylbenzyl)isophthalonitrile monohydrate]
stability of the crystalline form with humidity: stable within a reasonable humidity range
